Read-outs that look alike come from different tables or passages of the source.
How the values were obtained:
[1] = tested on: MV4:11 human cancer cell lines; assay: Anti-proliferative activity, CellTiter-Glo viability assay, 7 day protocol; format: cell-based; details: Homo sapiens, MV4-11, 168 h, MV4:11 cells, 7 day incubation, read-out: GI50 on cellular proliferation of MV4:11 human cancer cell lines
Procedure, shortened: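 MV4:11 cells seeded at 3600 cells/ml and exposed to compounds for 7 days, 0.1% DMSO final. Viability measured by CellTiter-Glo luminescence. GI50 from three biological replicates, each in technical triplicate, given as mean ± S.E.M.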

WDR5 = WDR5 (Homo sapiens (Human), UniProt P61964); assay: TR-FRET binding assay (displacement of 10mer-Thr-FAM probe from WDR5)
[2] = read-out: Ki for Inhibition of WDR5 by TR-FRET assay, TR-FRET, 10mer-Thr-FAM probe, WDR5-His tag 2 nM, pH 7.0
[3] = read-out: Ki for Inhibition of WDR5 by TR-FRET assay

| Ki (WDR5) [nM] | Structure (SMILES) | GI50 [1] [nM] | Ki (WDR5; [2]) [nM] | Ki (WDR5; [3]) [nM] |
| --- | --- | --- | --- | --- |
|  | Cc1cc([C@@H](NC(=O)c2cc(Cn3ccoc3=N)cc(-c3cn(C)nc3C(F)(F)F)c2)C2CC2)ncc1F [Example 299, (S)—N-(Cyclopropyl(5-fluoro-4-methylpyridin-2-yl)methyl)-3-((2-iminooxazol-3(2H)-yl)methyl)-5-(1-methyl-3-(trifluoromethyl)-1H-pyrazol-4-yl)benzamide] | < 100 | < 0.1 |  |
|  | Cc1cc([C@@H](NC(=O)c2cc(CN3CCOC3=N)cc(-c3cn(C)nc3C(F)(F)F)c2)C2CC2)ncc1F [Example 300, (S)—N-(Cyclopropyl(5-fluoro-4-methylpyridin-2-yl)methyl)-3-((2-iminooxazolidin-3-yl)methyl)-5-(1-methyl-3-(trifluoromethyl)-1H-pyrazol-4-yl)benzamide] | < 100 | < 0.1 |  |
|  | N=C1OCCN1Cc1cc(C(=O)N[C@H](c2ccc(Cl)c(F)c2)C2CC2)cc(-c2ccc(F)cc2Cl)c1 [Example 301, (S)-2′-Chloro-N-((4-chloro-3-fluorophenyl)(cyclopropyl)methyl)-4′-fluoro-5-((2-iminooxazolidin-3-yl)methyl)-[1,1′-biphenyl]-3-carboxamide] | 270 | < 0.1 |  |
|  | CCOc1c(C(=O)N[C@@H](C)c2ccc(F)c(C)c2)cc(CN2CCOC2=N)cc1-c1cn(C)nc1C(F)(F)F [Example 302, (S)-2-Ethoxy-N-(1-(4-fluoro-3-methylphenyl)ethyl)-5-((2-iminooxazolidin-3-yl)methyl)-3-(1-methyl-3-(trifluoromethyl)-1H-pyrazol-4-yl)benzamide] | < 100 | < 0.1 |  |
|  | CCOc1c(C(=O)N[C@H](c2ccc(F)c(C)c2)C2CC2)cc(CN2CCOC2=N)cc1-c1cn(C)nc1C(F)(F)F [Example 303, (S)—N-(Cyclopropyl(4-fluoro-3-methylphenyl)methyl)-2-ethoxy-5-((2-iminooxazolidin-3-yl)methyl)-3-(1-methyl-3-(trifluoromethyl)-1H-pyrazol-4-yl)benzamide] | < 100 | < 0.1 |  |
|  | COc1cc([C@@H](NC(=O)c2cc(CN3CCOC3=N)cc(-c3cccnc3C(F)(F)F)c2)C2CC2)ccc1F [Example 305, (S)—N-(Cyclopropyl(4-fluoro-3-methoxyphenyl)methyl)-3-((2-iminooxazolidin-3-yl)methyl)-5-(2-(trifluoromethyl)pyridin-3-yl)benzamide] | < 100 | < 0.1 |  |
| < 0.1 | COc1cc([C@@H](NC(=O)c2cc(Cn3ccoc3=N)cc(-c3cn(C)nc3C(F)(F)F)c2)C2CC2)ncc1F [Example 306, (S)—N-(Cyclopropyl(5-fluoro-4-methoxypyridin-2-yl)methyl)-3-((2-iminooxazol-3(2H)-yl)methyl)-5-(1-methyl-3-(trifluoromethyl)-1H-pyrazol-4-yl)benzamide] | 410 |  |  |
|  | COc1cc(CNC(=O)c2cc(CN3CCSC3=N)cc(-c3ccc(F)cc3C)c2)cc(OC)c1 [Example 308, N-(3,5-Dimethoxybenzyl)-4′-fluoro-5-((2-iminothiazolidin-3-yl)methyl)-2′-methyl-[1,1′-biphenyl]-3-carboxamide] | 630 |  | 0.45 |
|  | N=C1SCCN1Cc1cc(C(=O)N[C@H](c2ccc(Cl)c(Cl)c2)C2CC2)cc(-c2ccc(F)cc2OC(F)F)c1 [Example 309, (S)—N-(Cyclopropyl(3,4-dichlorophenyl)methyl)-2′-(difluoromethoxy)-4′-fluoro-5-((2-iminothiazolidin-3-yl)methyl)-[1,1′-biphenyl]-3-carboxamide] | 960 |  | 0.77 |
|  | Cn1cc(-c2cc(CN3CCSC3=N)cc(C(=O)N[C@H](c3ccc(Cl)c(Cl)c3)C3CC3)c2)c(C(F)(F)F)n1 [Example 310, (S)—N-(Cyclopropyl(3,4-dichlorophenyl)methyl)-3-((2-iminothiazolidin-3-yl)methyl)-5-(1-methyl-3-(trifluoromethyl)-1H-pyrazol-4-yl)benzamide] | 170 |  | < 0.1 |
|  | CCn1cc(-c2cc(CN3CCSC3=N)cc(C(=O)N[C@H](c3ccc(F)c(C)c3)C3CC3)c2)c(C(F)(F)F)n1 [Example 312, (S)—N-(Cyclopropyl (4-fluoro-3-methylphenyl)methyl)-3-(1-ethyl-3-(trifluoromethyl)-1H-pyrazol-4-yl)-5-((2-iminothiazolidin-3-yl)methyl)benzamide] | < 100 | < 0.1 |  |
|  | CCn1cc(-c2cc(Cn3ccsc3=N)cc(C(=O)N[C@H](c3ccc(F)c(C)c3)C3CC3)c2)c(C(F)(F)F)n1 [Example 320, (S)—N-(Cyclopropyl(4-fluoro-3-methylphenyl)methyl)-3-(1-ethyl-3-(trifluoromethyl)-1H-pyrazol-4-yl)-5-((2-iminothiazol-3(2H)-yl)methyl)benzamide] | < 100 | < 0.1 |  |
|  | Cc1cc([C@@H](NC(=O)c2cc(Cn3ccsc3=N)cc(-c3cn(C)nc3C(F)(F)F)c2)C2CC2)ccc1F [Example 321, (S)—N-(Cyclopropyl(4-fluoro-3-methylphenyl)methyl)-3-((2-iminothiazol-3(2H)-yl)methyl)-5-(1-methyl-3-(trifluoromethyl)-1H-pyrazol-4-yl)benzamide] | < 100 | < 0.1 |  |
|  | Cc1cc([C@@H](NC(=O)c2cc(Cn3ccsc3=N)cc(-c3cn(C(C)C)nc3C(F)(F)F)c2)C2CC2)ccc1F [Example 322, (S)—N-(Cyclopropyl(4-fluoro-3-methylphenyl)methyl)-3-((2-iminothiazol-3(2H)-yl)methyl)-5-(1-isopropyl-3-(trifluoromethyl)-1H-pyrazol-4-yl)benzamide] | 150 |  | < 0.1 |
|  | CCn1cc(-c2cc(Cn3ccsc3=N)cc(C(=O)N[C@H](c3ccc(Cl)c(F)c3)C3CC3)c2)c(C(F)(F)F)n1 [Example 324, (S)—N-((4-Chloro-3-fluorphenyl)(cyclopropyl)methyl)-3-(1-ethyl-3-(trifluoromethyl)-1H-pyrazol-4-yl)-5-((2-iminothiazol-3(2H)-yl)methyl)benzamide] | < 100 |  | < 0.1 |
|  | Cc1cc([C@@H](NC(=O)c2cc(Cn3ccsc3=N)cc(-c3cn(C)nc3C(F)(F)F)c2)C2CC2)ncc1F [Example 325, (S)—N-(Cyclopropyl(5-fluoro-4-methylpyridin-2-yl)methyl)-3-((2-iminothiazol-3(2H)-yl)methyl)-5-(1-methyl-3-(trifluoromethyl)-1H-pyrazol-4-yl)benzamide] | < 100 | < 0.1 |  |
|  | COc1cc([C@@H](NC(=O)c2cc(Cn3ccsc3=N)cc(-c3cn(C)nc3C(F)(F)F)c2)C2CC2)ccc1F [Example 327, (S)—N-(Cyclopropyl(4-fluoro-3-methoxyphenyl)methyl)-3-((2-iminothiazol-3(2H)-yl)methyl)-5-(1-methyl-3-(trifluoromethyl)-1H-pyrazol-4-yl)benzamide] | < 100 | < 0.1 |  |
|  | CCn1cc(-c2cc(Cn3ccsc3=N)cc(C(=O)N[C@H](c3ccc(F)c(OC)c3)C3CC3)c2)c(C(F)(F)F)n1 [Example 328, (S)—N-(Cyclopropyl(4-fluoro-3-methoxyphenyl)methyl)-3-(1-ethyl-3-(trifluoromethyl)-1H-pyrazol-4-yl)-5-((2-iminothiazol-3(2H)-yl)methyl)benzamide] | < 100 | < 0.1 |  |
|  | Cc1cc([C@@H](NC(=O)c2cc(CN3CCCC3=N)cc(-c3ccc(F)cc3C#N)c2)C2CC2)ccc1F [Example 333, (S)-2′-Cyano-N-(cyclopropyl(4-fluoro-3-methylphenyl)methyl)-4′-fluoro-5-((2-iminopyrrolidin-1-yl)methyl)-[1,1′-biphenyl]-3-carboxamide] | 520 | 0.39 |  |
|  | Cc1cc([C@@H](NC(=O)c2cc(CN3CCCC3=N)cc(-c3cccnc3C(F)(F)F)c2)C2CC2)ccc1F [Example 334, (S)—N-(Cyclopropyl(4-fluoro-3-methylphenyl)methyl)-3-((2-iminopyrrolidin-1-yl)methyl)-5-(2-(trifluoromethyl)pyridin-3-yl)benzamide] | < 100 | < 0.1 |  |
|  | Cc1cc([C@@H](NC(=O)c2cc(CN3CCCC3=N)cc(-c3ccc(F)cc3C(F)(F)F)c2)C2CC2)ccc1F [Example 335, (S)—N-(Cyclopropyl(4-fluoro-3-methylphenyl)methyl)-4′-fluoro-5-((2-iminopyrrolidin-1-yl)methyl)-2′-(trifluoromethyl)-[1,1′-biphenyl]-3-carboxamide] | < 100 | < 0.1 |  |
|  | Cc1cc([C@@H](NC(=O)c2cc(CN3CCCC3=N)cc(-c3cn(C(C)C)nc3C(F)(F)F)c2)C2CC2)ccc1F [Example 336, (S)—N-(Cyclopropyl(4-fluoro-3-methylphenyl)methyl)-3-((2-iminopyrrolidin-1 yl)methyl)-5-(1-isopropyl-3-(trifluoromethyl)-1H-pyrazol-4-yl)benzamide] | < 100 | < 0.1 |  |
|  | Cc1cc([C@@H](NC(=O)c2cc(CN3CCCC3=N)cc(-c3cn(C)nc3C(F)(F)F)c2)C2CC2)ccc1F [Example 337, (S)—N-(Cyclopropyl(4-fluoro-3-methylphenyl)methyl)-3-((2-iminopyrrolidin-1-yl)methyl)-5-(1-methyl-3-(trifluoromethyl)-1H-pyrazol-4-yl)benzamide] | < 100 | < 0.1 |  |
|  | CCn1cc(-c2cc(CN3CCCC3=N)cc(C(=O)N[C@H](c3ccc(F)c(Cl)c3)C3CC3)c2)c(C(F)(F)F)n1 [Example 338, (S)—N-((3-Chloro-4-fluorophenyl)(cyclopropyl)methyl)-3-(1-ethyl-3-(trifluoromethyl)-1H-pyrazol-4-yl)-5-((2-iminopyrrolidin-1-yl)methyl)benzamide] | < 100 | < 0.1 |  |
